In test [1] the test system is W303-1A. Kind of test: Growth inhibition of wild-type yeast W303-1A in YEPD with 1.5 M NaCl (OD 600). Type of test: cell-based, Saccharomyces cerevisiae. As for the experimental part:
(§1) Transformants growing on high salt plates were picked and grown in 18×150 mm glass culture tubes containing 10 ml liquid YEPD medium or liquid YEPD medium with 1.5 M NaCl. These tubes were inoculated with approximately 10^5 cells and cultured at 30° C. on a roller bottle. Growth rates were recorded in terms of optical density values at various times after inoculation. Growth rates were also monitored in 96-well plates using the indicator dye Alamar Blue (BioSource International, Camarillo, Calif.) as previously described by Klein et al., (1997b). In 96-well plate experiments, each well contained approximately 10^4 cells (in 20 ul medium) inoculated into 180 ul liquid YEPD medium or liquid YEPD medium containing 1.5 M NaCl. These plates were then incubated at 30° C. for 24 or 48 hours. At that time, 20 ul Alamar Blue solution was added to each well and the color allowed to develop for 5-30 minutes. Color changes in each well were noted after visual inspection and recorded.
Nitrophenide, a known inhibitor of MIPDH (Schmatz 1997), was used to validate the assay. The Δgpd1transformed with pYES21/m1pdh was grown in liquid YEPD medium, either supplemented with 1.5 M NaCal or not and containing one of 3 concentrations of nitrophenide (Aldrich Chemical Co.) dissolved in DMSO. Experiments were conducted in glass culture tubes prepared and processed as described above. […]

In test [2] the test system is Δgpd1-pYES2/m1pdh (Saccharomyces cerevisiae Δgpd1 expressing Eimeria tenella m1pdh). Briefly: Growth inhibition of yeast transformant Δgpd1-pYES2/m1pdh in liquid YEPD with or without 1.5 M NaCl (OD 600). Format: cell-based. As to the method: as §1
(§2) Nitrophenide, a known inhibitor of MIPDH (Schmatz 1997), was used to validate the assay. The Δgpd1transformed with pYES21/m1pdh was grown in liquid YEPD medium, either supplemented with 1.5 M NaCal or not and containing one of 3 concentrations of nitrophenide (Aldrich Chemical Co.) dissolved in DMSO. Experiments were conducted in glass culture tubes prepared and processed as described above. Growth in nitrophenide-containing media was compared to growth in identical medium lacking nitrophenide by measuring and recording changes at OD 600 nm after 24, 48 or 72 hours in culture as described above.
(§3) Test groups of each sample organism were inoculated into liquid cultures of YEPD and YEPD with 1.5 M NaCl. Rate of growth was estimated by recording OD 600 values at 24 hr intervals. All strains grew equally well in YEPD, but growth rates in YEPD with 1.5 M NaCl were distinctly different between transformants expressing mt1D or m1pdh and controls as shown in FIG. 3.
Nitrophenide was dissolved in DMSO and added to cultures at final concentrations of 1 μM, 2.5 μM or 10 μM. DMSO alone was also tested. Little toxicity was apparent for DMSO or for nitrophenide in YEPD except at 10 μM, a concentration at which slowing of the rate of growth of Δgpd1-pYES2/mt1D and Δgpd1-pYES2/MIPDH was observed as shown in FIG. 4. However, in YEPD with 1.5 M NaCl, nitrophenide was toxic to Δgpd1-pYES2/mt1D and Δgpd1-pYES2/MIPDH at concentrations as low as 2.5 uM and abolishes growth at 10 uM as shown in FIG. 4. Nitrophenide was also toxic to W303-1A under these conditions, but this strain grew more slowly than either of the transformants under salt pressure. The difference in rate of growth made comparisons between strains difficult.

The subject of test [3] is Δgpd1-pYES2/mt1D (Saccharomyces cerevisiae Δgpd1 expressing E. coli mt1D). Briefly: Growth inhibition of yeast transformant Δgpd1-pYES2/mt1D in liquid YEPD with or without 1.5 M NaCl (OD 600). Type of test: cell-based. As to the method:
as §1, §2, §3
Nitrophenide was dissolved in DMSO and added to cultures at final concentrations of 1 μM, 2.5 μM or 10 μM. DMSO alone was also tested. […]

Where [4] appears, read: YEPD with 1.5 M NaCl, tested at 1, 2.5 and 10 μM.
Setting [5] is: YEPD without added NaCl, little toxicity at lower concentrations.

Turning to `O=[N+]([O-])c1cccc(SSc2cccc([N+](=O)[O-])c2)c1` [Nitrophenide, nitrophenide], the toxicity to growth entry in test [1] is “toxic”. The “concentration that abolishes growth” value in test [2] (YEPD with 1.5 M NaCl) and in test [3] (YEPD with 1.5 M NaCl) was 10 µM in each case. Also, the “lowest concentration toxic to growth” value in test [2] (setting [4]) and in test [3] (setting [4]) was 2.5 µM each time. Besides, the “concentration at which slowing of the rate of growth was observed” value in test [2] (setting [5]) and in test [3] (setting [5]) was 10 µM in each case. Moreover, the “effect on growth (FIG. 4)” value in test [2] (medium containing 1.5 M NaCl) was “dramatically suppressed”. Besides, the “toxicity compared with 1.5 M NaCl medium (FIG. 4)” value in test [2] (medium with no additional NaCl) was “reduced”.

For the origin of these results see patent US20040018581A1, “Method for discovering substances for inhibiting enzymes” (Pharmacia and UpJohn Company, priority 2002, published 2004).
